In US7138361B2, “Herbicidal heterocycles” (E. I. du Pont de Nemours and Company, priority 2000, dated 2006):

Key:
Assay in all cases: Test C postemergence
Assay type in all cases: in vivo
[1] = system: woolly cupgrass (Eriochloa villosa)
Summary of the method: (§1)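 Compounds in non-phytotoxic solvent with surfactant applied preemergence to planted seeds and postemergence to plants at 1- to 4-leaf stage (2–18 cm). Kept in greenhouse 12–14 days, then visually rated against controls on a 0 (no effect) to 100 (complete control) scale.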

[2] = system: bermudagrass (Cynodon dactylon)
Summary of the method: as §1

[3] = system: giant foxtail (Setaria faberii)
Summary of the method: as §1

kochia (Kochia scoparia) = system: kochia (Kochia scoparia)
Summary of the method: as §1

[4] = system: velvetleaf (Abutilon theophrasti)
Summary of the method: as §1

[5] = system: chickweed (Stellaria media)
Summary of the method: as §1

[6] = system: yellow nutsedge (Cyperus esculentus)
Summary of the method: as §1

soybean (Glycine max) = system: soybean (Glycine max)
Summary of the method: as §1

[7] = system: pigweed (Amaranthus retroflexus)
Summary of the method: as §1

[8] = system: common ragweed (Ambrosia elatior)
Summary of the method: as §1

[9] = system: morningglory (Ipomoea hederacea)
Summary of the method: as §1

[10] = system: johnsongrass (Sorghum halepense)
Summary of the method: as §1

[11] = system: Surinam grass (Brachiaria decumbens)
Summary of the method: as §1

[12] = system: goosegrass (Eleusine indica)
Summary of the method: as §1

[13] = system: lambsquarters (Chenopodium album)
Summary of the method: as §1

[14] = Rate 125 g/ha, scale 0 to 100, 0 no effect, 100 complete control
[15] = Rate 250 g/ha, scale 0 to 100 (0 no effect, 100 complete control)
[16] = Rate 62 g/ha, scale 0 to 100, 0 no effect, 100 complete control
[17] = Rate 500 g/ha, scale 0 to 100 (0 no effect, 100 complete control)

SMILES: CC(C)(C)c1ccn(C2SCN(c3cccc(OC(F)F)c3)C2=O)n1 (stereo not drawn) [Compound 36]
- Plant response rating, Cupgrass, Woolly ([1]; Rate 31 g/ha, scale 0 to 100): 0
- Plant response rating, Cupgrass, Woolly [1, 14]: 0
- Plant response rating, Cupgrass, Woolly [1, 15]: 0
- Plant response rating, Bermudagrass ([2]; Rate 31 g/ha, scale 0 to 100): 0
- Plant response rating, Bermudagrass [2, 16]: 0
- Plant response rating, Bermudagrass [2, 14]: 0
- Plant response rating, Bermudagrass [2, 15]: 70
- Plant response rating, Foxtail, Giant ([3]; Rate 31 g/ha, scale 0 to 100): 0
- Plant response rating, Foxtail, Giant [3, 14]: 0
- Plant response rating, Foxtail, Giant [3, 15]: 20
- Plant response rating, Kochia (kochia (Kochia scoparia); Rate 31 g/ha, scale 0 to 100): 20
- Plant response rating, Kochia (kochia (Kochia scoparia); [14]): 70
- Plant response rating, Kochia (kochia (Kochia scoparia); [15]): 80
- Plant response rating, Velvetleaf ([4]; Rate 31 g/ha, scale 0 to 100): 0
- Plant response rating, Velvetleaf [4, 14]: 0
- Plant response rating, Velvetleaf [4, 15]: 30
- Plant response rating, Chickweed ([5]; Rate 31 g/ha, scale 0 to 100): 0
- Plant response rating, Chickweed [5, 16]: 0
- Plant response rating, Chickweed [5, 14]: 0
- Plant response rating, Chickweed [5, 15]: 50
- Plant response rating, Nutsedge ([6]; Rate 31 g/ha, scale 0 to 100): 0
- Plant response rating, Nutsedge [6, 14]: 0
- Plant response rating, Nutsedge [6, 15]: 30
- Plant response rating, Soybean (soybean (Glycine max); Rate 31 g/ha, scale 0 to 100): 0
- Plant response rating, Soybean (soybean (Glycine max); [14]): 0
- Plant response rating, Soybean (soybean (Glycine max); [15]): 0
- Plant response rating, Pigweed ([7]; Rate 31 g/ha, scale 0 to 100): 30
- Plant response rating, Pigweed [7, 14]: 60
- Plant response rating, Pigweed [7, 15]: 60
- Plant response rating, Ragweed, Common ([8]; Rate 31 g/ha, scale 0 to 100): 0
- Plant response rating, Ragweed, Common [8, 14]: 0
- Plant response rating, Ragweed, Common [8, 15]: 30
- Plant response rating, Morningglory ([9]; Rate 31 g/ha, scale 0 to 100): 0
- Plant response rating, Morningglory [9, 14]: 0
- Plant response rating, Morningglory [9, 15]: 20
- Plant response rating, Johnsongrass ([10]; Rate 31 g/ha, scale 0 to 100): 0
- Plant response rating, Johnsongrass [10, 14]: 0
- Plant response rating, Johnsongrass [10, 15]: 0
- Plant response rating, Surinam grass ([11]; Rate 31 g/ha, scale 0 to 100): 0
- Plant response rating, Surinam grass [11, 16]: 0
- Plant response rating, Surinam grass [11, 14]: 0
- Plant response rating, Surinam grass [11, 15]: 0
- Plant response rating, Goosegrass ([12]; Rate 31 g/ha, scale 0 to 100): 0
- Plant response rating, Goosegrass [12, 14]: 0
- Plant response rating, Goosegrass [12, 15]: 0
- Plant response rating, Lambsquarters ([13]; Rate 31 g/ha, scale 0 to 100): 50
- Plant response rating, Lambsquarters [13, 14]: 70
- Plant response rating, Lambsquarters [13, 15]: 70

SMILES: CCC(CC)c1ccn(C2SCN(c3cccc(C(F)(F)F)c3)C2=O)n1 (stereo not drawn) [Compound 21]
- Plant response rating, Cupgrass, Woolly ([1]; Rate 31 g/ha, scale 0 to 100): 0
- Plant response rating, Cupgrass, Woolly [1, 14]: 0
- Plant response rating, Bermudagrass ([2]; Rate 31 g/ha, scale 0 to 100): 50
- Plant response rating, Bermudagrass [2, 16]: 50
- Plant response rating, Bermudagrass [2, 14]: 50
- Plant response rating, Foxtail, Giant ([3]; Rate 31 g/ha, scale 0 to 100): 0
- Plant response rating, Foxtail, Giant [3, 14]: 0
- Plant response rating, Kochia (kochia (Kochia scoparia); Rate 31 g/ha, scale 0 to 100): 30
- Plant response rating, Kochia (kochia (Kochia scoparia); [14]): 40
- Plant response rating, Velvetleaf ([4]; Rate 31 g/ha, scale 0 to 100): 20
- Plant response rating, Velvetleaf [4, 14]: 30
- Plant response rating, Chickweed ([5]; Rate 31 g/ha, scale 0 to 100): 30
- Plant response rating, Chickweed [5, 16]: 50
- Plant response rating, Chickweed [5, 14]: 50
- Plant response rating, Nutsedge ([6]; Rate 31 g/ha, scale 0 to 100): 0
- Plant response rating, Nutsedge [6, 14]: 0
- Plant response rating, Soybean (soybean (Glycine max); Rate 31 g/ha, scale 0 to 100): 0
- Plant response rating, Soybean (soybean (Glycine max); [14]): 30
- Plant response rating, Pigweed ([7]; Rate 31 g/ha, scale 0 to 100): 50
- Plant response rating, Pigweed [7, 14]: 70
- Plant response rating, Ragweed, Common ([8]; Rate 31 g/ha, scale 0 to 100): 0
- Plant response rating, Ragweed, Common [8, 14]: 50
- Plant response rating, Morningglory ([9]; Rate 31 g/ha, scale 0 to 100): 0
- Plant response rating, Morningglory [9, 14]: 60
- Plant response rating, Johnsongrass ([10]; Rate 31 g/ha, scale 0 to 100): 0
- Plant response rating, Johnsongrass [10, 14]: 50
- Plant response rating, Surinam grass ([11]; Rate 31 g/ha, scale 0 to 100): 0
- Plant response rating, Surinam grass [11, 16]: 0
- Plant response rating, Surinam grass [11, 14]: 0
- Plant response rating, Goosegrass ([12]; Rate 31 g/ha, scale 0 to 100): 0
- Plant response rating, Goosegrass [12, 14]: 0
- Plant response rating, Lambsquarters ([13]; Rate 31 g/ha, scale 0 to 100): 70
- Plant response rating, Lambsquarters [13, 14]: 80

SMILES: O=C1C(n2ccc(C3CCC3)n2)SCN1c1cccc(OC(F)(F)F)c1 (stereo not drawn) [Compound 38]
- Plant response rating, Cupgrass, Woolly ([1]; Rate 62 g/ha, scale 0 to 100): 0
- Plant response rating, Cupgrass, Woolly [1, 14]: 0
- Plant response rating, Cupgrass, Woolly [1, 15]: 0
- Plant response rating, Cupgrass, Woolly [1, 17]: 0
- Plant response rating, Bermudagrass ([2]; Rate 62 g/ha, scale 0 to 100): 0
- Plant response rating, Bermudagrass [2, 14]: 0
- Plant response rating, Bermudagrass [2, 15]: 30
- Plant response rating, Bermudagrass [2, 17]: 70
- Plant response rating, Foxtail, Giant ([3]; Rate 62 g/ha, scale 0 to 100): 0
- Plant response rating, Foxtail, Giant [3, 14]: 0
- Plant response rating, Foxtail, Giant [3, 15]: 0
- Plant response rating, Foxtail, Giant [3, 17]: 0
- Plant response rating, Kochia (kochia (Kochia scoparia); Rate 62 g/ha, scale 0 to 100): 60
- Plant response rating, Kochia (kochia (Kochia scoparia); [14]): 60
- Plant response rating, Kochia (kochia (Kochia scoparia); [15]): 70
- Plant response rating, Kochia (kochia (Kochia scoparia); [17]): 70
- Plant response rating, Velvetleaf ([4]; Rate 62 g/ha, scale 0 to 100): 0
- Plant response rating, Velvetleaf [4, 14]: 0
- Plant response rating, Velvetleaf [4, 15]: 0
- Plant response rating, Velvetleaf [4, 17]: 0
- Plant response rating, Chickweed ([5]; Rate 62 g/ha, scale 0 to 100): 0
- Plant response rating, Chickweed [5, 14]: 0
- Plant response rating, Chickweed [5, 15]: 0
- Plant response rating, Chickweed [5, 17]: 0
- Plant response rating, Nutsedge ([6]; Rate 62 g/ha, scale 0 to 100): 0
- Plant response rating, Nutsedge [6, 14]: 0
- Plant response rating, Nutsedge [6, 15]: 0
- Plant response rating, Nutsedge [6, 17]: 0
- Plant response rating, Soybean (soybean (Glycine max); Rate 62 g/ha, scale 0 to 100): 0
- Plant response rating, Soybean (soybean (Glycine max); [14]): 0
- Plant response rating, Soybean (soybean (Glycine max); [15]): 0
- Plant response rating, Soybean (soybean (Glycine max); [17]): 0
- Plant response rating, Pigweed ([7]; Rate 62 g/ha, scale 0 to 100): 0
- Plant response rating, Pigweed [7, 14]: 0
- Plant response rating, Pigweed [7, 15]: 0
- Plant response rating, Pigweed [7, 17]: 0
- Plant response rating, Ragweed, Common ([8]; Rate 62 g/ha, scale 0 to 100): 0
- Plant response rating, Ragweed, Common [8, 14]: 0
- Plant response rating, Ragweed, Common [8, 15]: 40
- Plant response rating, Ragweed, Common [8, 17]: 40
- Plant response rating, Morningglory ([9]; Rate 62 g/ha, scale 0 to 100): 0
- Plant response rating, Morningglory [9, 14]: 0
- Plant response rating, Morningglory [9, 15]: 0
- Plant response rating, Morningglory [9, 17]: 20
- Plant response rating, Johnsongrass ([10]; Rate 62 g/ha, scale 0 to 100): 0
- Plant response rating, Johnsongrass [10, 14]: 0
- Plant response rating, Johnsongrass [10, 15]: 0
- Plant response rating, Johnsongrass [10, 17]: 30
- Plant response rating, Surinam grass ([11]; Rate 62 g/ha, scale 0 to 100): 0
- Plant response rating, Surinam grass [11, 14]: 0
- Plant response rating, Surinam grass [11, 15]: 0
- Plant response rating, Surinam grass [11, 17]: 0
- Plant response rating, Goosegrass ([12]; Rate 62 g/ha, scale 0 to 100): 0
- Plant response rating, Goosegrass [12, 14]: 0
- Plant response rating, Goosegrass [12, 15]: 0
- Plant response rating, Goosegrass [12, 17]: 0
- Plant response rating, Lambsquarters ([13]; Rate 62 g/ha, scale 0 to 100): 30
- Plant response rating, Lambsquarters [13, 14]: 30
- Plant response rating, Lambsquarters [13, 15]: 70
- Plant response rating, Lambsquarters [13, 17]: 70
